Results: PMC3929365, “Benzimidazoisoquinolines: A New Class of Rapidly Metabolized Aryl Hydrocarbon Receptor (AhR) Ligands that Induce AhR-Dependent Tregs and Prevent Murine Graft-Versus-Host Disease” (PLoS ONE, 2014)
Where “and” joins values, the source holds several entries; their conditions need not be identical. Identical values can stand only once.

Assays:
AhR [1] = test: AhR-regulated (XRE) luciferase reporter gene assay in Hepa-1 cells; assay type: cell-based, mouse; details: 10 nM, 12 h, Hepa1 cells, XRE-luciferase reporter
Description: Figure 1 10-Cl-BBQ is a potent AhR ligand. A) Structure of 10-Cl-BBQ. […] C) Hepa-1 cells expressing endogenous AhR were transfected with an AhR-regulated luciferase reporter gene (xenobiotic responsive element (XRE)-MMTVpromoter-Luc) and the reporter gene activity was measured after 12 h of treatment with 1 nM TCDD or the indicated concentrations of 10-Cl-BBQ. D) Alteration in proteolytic pattern of AhR by 10-Cl-BBQ. Whole cell lysate (45 µg of protein) from mouse hepatoma Hepa1c1c7 cells was incubated with 100 nM 10-Cl-BBQ or 0.1% DMSO for 1 h at RT and proteolyzed by 1 µg/ml subtilisin for 1, 2, 4, and 8 min at RT. Proteolytic cleavage products of AhR were analyzed by immunoblot. E) Electrophoretic mobility shift assay showing the ligand-stimulated binding of AhR to XRE. Whole cell lysate (18 µg of protein) from mouse hepatoma Hepa1c1c7 cells was incubated with 10 nM 10-Cl-BBQ or 0.1% DMSO for 2 h at room temperature and ^32P-labeled oligonucleotide containing XRE for 20 min at room temperature. The samples were electrophoresed on a native polyacrylamide gel and the signal was visualized by Phosphor Imager. Unlabeled competitor XRE or antibody (Ab) against AhR or Arnt was co-incubated with ^32P-labeled oligonucleotide.
The mean luciferase activity is shown with SEM. […] 3-MC binding to AhR.

AhR [2] = tested on: AhR
Description: The AhR reporter gene assay was performed as previously described (20–22).
B) Hepa1 cells expressing endogenous AhR were transfected with a XRE-luciferase reporter gene. […] The mean luciferase activity is shown with SEM. C) Dose response curves for the competitive inhibition of [^3H] 3-MC binding to AhR.
3-methylcholanthrene (3-MC) to AhR (Fig. 5C).

AhR [3] = tested on: AhR; design: method as in PMID 18755850; details: MCF-7 cells and human macrophages; cited from earlier work
CaMKK = tested on: CaMKK; design: method as in PMID 11867640; details: cited from earlier work
donor CD4+ T cells = test: AhR-Treg phenotype of alloactivated donor CD4+ T cells 48 h after initiating the GVH response; assay type: in vivo, B6D2F1 host mice; details: 10 mg/kg i.p. day 0 and day 1, analysed day 2, vs vehicle
Description: Splenocytes and lymphocytes were harvested from C57Bl/6 mice. In some experiments, T cells were purified by negative selection using a Pan-T kit (Miltenyi Biotec) and stained with 2 µM carboxyfluorescein succinimidyl ester (CFSE) (Life Technologies). At least 2×10^7 purified T cells or approximately 1×10^8 pooled splenocytes and lymphocytes were injected i.v. into B6D2F1 host mice to initiate the GVH response. GVHD pathology was assessed on a scale of 0 to 3 (0 = normal, 1 = moderate morbidity, 2 = severe morbidity, 3 = death) according to the following five criteria: weight-loss, posture, activity, fur texture and death and reported as a Clinical GVHD Score.
Host mice were treated daily with vehicle, 10-Cl-BBQ or BBQ analogues by i.p. injection. The vehicle consisted of a mixture of 6.7% anisole and peanut oil. Mice treated with a single i.p. dose of 15 µg TCDD/kg body weight in the same vehicle were used as positive controls.
Antibodies to CTLA-4, Foxp3, ICOS, CD62L, CD25, CD19, CD44) and a fixable viability dye were purchased from eBiosciences. Additional antibody reagents included CD4 and CD8 (Life Technologies); H-2D^d (Biolegend) and CD45RB (PharMingen). After surface staining, the cells were fixed and permeabilized with Cytofix/cytoperm (BD Biosciences) for intracellular CTLA-4 stain. The flow cytometry data were acquired on an FC500 instrument (Beckman Coulter) and the data were analyzed using WinList 7.0 (Verity Software House). Fluorescence minus one (FMO) controls were used for setting histogram gates during the analysis.
Figure 3 10-Cl-BBQ induces an AhR-dependent Treg phenotype 48 h after initiating the GVH response. On day 0, B6D2F1 host mice in groups of 5 were injected with CFSE-labeled C57Bl/6 T cells and given 15 mg/kg 10-Cl-BBQ, 15 µg/kg TCDD or vehicle by i.p. injection. At 24 h, an additional dose of 7 mg/kg 10-Cl-BBQ or vehicle was given. […] Treatment mean ± SEM is shown in the quadrant of interest. […] C) AhR-dependent induction of the donor Treg phenotype by 10-Cl-BBQ. On day 0, B6D2F1 host mice in groups of 5 were injected with donor T cells obtained from AhR^+/+ or AhR^−/− C57Bl/6 mice. Host mice were treated with 2 mg/kg10-Cl-BBQ or vehicle immediately following donor cell transfer and again at 24 hr. […] D) Dose-dependent induction of Treg phenotype by 10-Cl-BBQ. On day 0, B6D2F1 host mice in groups of 3–5 were injected with C57Bl/6 T cells. Mice were immediately treated with 0, 0.4, 2 or 10 mg/kg 10-Cl-BBQ and again on day 1. On day 2, expression of markers associated with the AhR-Treg phenotype increased as the dose of 10-Cl-BBQ increased. E) In the same mice as in D, lymph nodes were harvested and analyzed for expression of genes that were previously shown to increase under the same GVH conditions with TCDD treatment (13). […] Changes in gene expression were calculated relative to the β-actin gene, and the fold-induction was calculated by the ΔΔCt method using the vehicle-treated samples as a control. * = p<0.05 relative to vehicle treatment. […]

Molecule	activation of AhR (AhR-regulated reporter gene activity) (AhR [1])	IC50 (AhR [2])	concentration at which AhR activation occurred (AhR [3]) [µM]	concentration known to fully inhibit CaMKK (CaMKK) [µM]	percentage of alloresponsive donor CD4+ T cells expressing CD25 with AhR-Treg markers ICOS, CD62Llow and CTLA-4 (donor CD4+ T cells)
NN1C(=O)c2ccc3c(=O)n4c5ccc(Cl)cc5nc4c4ccc(c2c34)C1=O [analogue 2, 2-Amino-10-chlorobenzimidazo[2,1-b]benzo[lmn][3,8]phenanthroline-1,3,6(2H)-trione]	did not induce reporter activity				
11-Chloro-8H-benzimidazo[2,1-a]phenanthro[3,4,5-defg]isoquinolin-8-one [analogue 3]	2 fold				
O=C(O)c1ccc2c3c1cccc3c(=O)n1c3ccccc3nc21 [analogue 5, 7-Oxo-7H-benzimidazo[2,1-a]benzo[de]isoquinoline-3-carboxylic acid, reference compound]	did not induce reporter activity	45200 nM and 45000 nM	25	25	
O=c1c2cccc3cccc(c32)c2nc3ccccc3n12 [analogue 1, 7H-Benzimidazo[2,1-a]benzo[de]isoquinolin-7-one]	13 fold	13.7 nM			significantly increased
O=c1c2ccc(Cl)c3cccc(c32)c2nc3cc(Cl)ccc3n12 [analogue 4, 4,11-Dichloro-7H-benzimidazo[2,1-a]benzo[de]isoquinolin-7-one]	19 fold	5.2 nM			significantly increased
Clc1cc2c(cc1Cl)Oc1cc(Cl)c(Cl)cc1O2 [TCDD, 2,3,7,8-tetrachlorodibenzo-p-dioxin, reference compound]		4.7 nM			
